In patent US20170107207A1, “AMINOPYRAZOLONE DERIVATIVE” (DAIICHI SANKYO COMPANY, LIMITED, priority 2014, published 2017):

Experiments:
[1] = system: COR-L23; experiment: Cell growth inhibition test, COR-L23; format: cell-based; settings: Homo sapiens, 72 h; COR-L23, Lung cancer, 3 days, CellTiter-Glo
Experimental: (§1) A cell growth inhibition test was carried out by treating a cultured cancer cell line with a test compound for a given period and then counting the number of viable cells by CellTiter-Glo Luminescent Cell Viability Assay (manufactured by Promega Corp.).
(§2) The following cells were inoculated to a 384-well plate containing the compound prepared in advance at predetermined concentrations. […]
(§3) The cells thus inoculated were cultured at 37° C. for 3 days under 5% CO2. […] Then, luminescence intensity was measured using a plate reader.
(§4) The number of viable cells and luminescence intensity have been confirmed to correlate with each other. Therefore, the rate of cell growth was calculated according to the following expression: Rate of cell growth (T/C %) of a test compound-supplemented well=100×[(B−C)/(A−C)] wherein A represents the luminescence intensity (final culture date) of a test compound-free well; B represents the luminescence intensity (final culture date) of a test compound-containing well; and C represents the luminescence intensity (day of cell inoculation) of a well at the start of contact of the cells with the test compound.
(§5) T/C % at the concentration of each of the serially diluted test compounds was determined. […]

[2] = system: DU 145; experiment: Cell growth inhibition test, DU 145; format: cell-based; settings: Homo sapiens, 72 h; DU 145, Prostate cancer, 3 days, CellTiter-Glo
Experimental: as §1, §2, §3, §4, §5

[3] = target: T1, TIP48/TIP49 complex (Homo sapiens, UniProt Q9Y230+Q9Y265); experiment: ATPase assay of TIP48/TIP49 complex (ADP-Glo); format: biochemical; settings: concentration at which the ATPase activity was inhibited by 50%
T1 construct: made in house; host or cells: E. coli
How it was run: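 Compound was tested over 10 four-fold concentrations, 200 μM down to 0.0007 μM at 2% DMSO, against E. coli-derived human rTIP48/rTIP49 for 1.5 h at room temperature, pH 7.5 with ATP. ATP hydrolysis was read as ADP-Glo luminescence, normalised to complex-only and no-complex wells, then fitted to dose-response curves.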

[4] = system: HCT-15; experiment: Cell growth inhibition test, HCT-15; format: cell-based; settings: Homo sapiens, 72 h; HCT-15, Large intestine cancer, 3 days, CellTiter-Glo
Experimental: as §1, §2, §3, §4, §5

T1 sequence (Q9Y230 whole entry): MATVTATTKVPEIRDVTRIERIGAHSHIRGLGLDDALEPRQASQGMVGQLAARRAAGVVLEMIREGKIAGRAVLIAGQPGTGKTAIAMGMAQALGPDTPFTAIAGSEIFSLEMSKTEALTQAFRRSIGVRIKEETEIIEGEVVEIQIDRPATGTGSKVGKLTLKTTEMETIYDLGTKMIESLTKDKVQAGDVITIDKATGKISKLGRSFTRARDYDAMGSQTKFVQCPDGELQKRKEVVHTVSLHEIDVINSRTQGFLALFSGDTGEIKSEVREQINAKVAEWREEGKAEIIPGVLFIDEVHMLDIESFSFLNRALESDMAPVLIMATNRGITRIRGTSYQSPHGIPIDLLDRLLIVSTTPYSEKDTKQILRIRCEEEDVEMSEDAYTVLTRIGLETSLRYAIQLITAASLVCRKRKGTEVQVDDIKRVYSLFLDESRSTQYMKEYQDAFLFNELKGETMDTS
T1 sequence (Q9Y265 whole entry): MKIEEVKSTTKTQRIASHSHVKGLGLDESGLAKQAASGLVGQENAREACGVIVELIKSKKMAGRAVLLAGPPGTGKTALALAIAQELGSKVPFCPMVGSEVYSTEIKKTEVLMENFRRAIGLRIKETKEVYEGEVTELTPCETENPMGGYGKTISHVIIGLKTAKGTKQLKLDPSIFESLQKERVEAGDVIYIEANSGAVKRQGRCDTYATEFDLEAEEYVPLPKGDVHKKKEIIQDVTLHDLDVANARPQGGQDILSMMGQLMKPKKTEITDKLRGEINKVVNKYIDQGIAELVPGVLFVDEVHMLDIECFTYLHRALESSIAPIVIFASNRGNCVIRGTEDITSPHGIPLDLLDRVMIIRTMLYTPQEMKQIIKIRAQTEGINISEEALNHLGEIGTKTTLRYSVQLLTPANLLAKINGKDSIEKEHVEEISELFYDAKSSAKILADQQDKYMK

IC50 [3] [nM] | GI50 [4] [nM] | SMILES | GI50 [1] [nM] | GI50 [2] [nM]
70 | 2700 | CCOc1ccc(Cl)cc1C(=O)NCC(C)(C)CC(=O)Nc1c([C@H](C)CN(C)C)n(C)n(-c2ccccc2)c1=O [Example 68, 5-Chloro-N-[4-({5-[(1R)-2-(dimethylamino)-1-methylethyl]-1-methyl-3-oxo-2-phenyl-2,3-dihydro-1H-pyrazol-4-yl}amino)-2,2-dimethyl-4-oxobutyl]-2-ethoxybenzamide] | 200 | 530
48 | 4000 | CCOc1ncc(Cl)cc1C(=O)NCC(C)(C)CC(=O)Nc1c([C@H](C)CN(C)C)n(C)n(-c2ccccc2)c1=O [Example 73, 5-Chloro-N-[4-({5-[(1R)-2-(dimethylamino)-1-methylethyl]-1-methyl-3-oxo-2-phenyl-2,3-dihydro-1H-pyrazol-4-yl}amino)-2,2-dimethyl-4-oxobutyl]-2-ethoxypyridine-3-carboxamide] | 550 | 1100
39 | 800 | CCOc1cc(F)c(Cl)cc1C(=O)NCC(C)(C)CC(=O)Nc1c(COC)n(C)n(-c2ccccc2)c1=O [Example 113, 5-Chloro-2-ethoxy-4-fluoro-N-(4-{[5-(methoxymethyl)-1-methyl-3-oxo-2-phenyl-2,3-dihydro-1H-pyrazol-4-yl]amino}-2,2-dimethyl-4-oxobutyl)benzamide] | 420 | 650
